From US10576056B2, “Compounds for treating cancer and methods of use thereof” (MCMASTER UNIVERSITY, priority 2015, dated 2020)
pIC50: −log10 of the molar value. Where two headings read alike, the source gives them in different places. One block for each compound: values may come before it.

Assays:
Assay type in all cases: cell-based
MCF7 cells = assay: MTT proliferation assay, MCF7 breast cancer cells; conditions: for effect on proliferation / pIC50: MCF7 cells; for pIC50: Homo sapiens; for effect on proliferation of MCF7 cells: increasing concentrations, 24 and 48 hours, 10% charcoal-stripped phenol-free serum, dose dependent
Method: (§1) First, the role of THs on breast cancer cell proliferation was evaluated using escalating doses of tri-iodothyronine (T3) and thyroxine (T4). […] In particular, the compound of Formula (I) or compound of Formula (Ia) is dronedarone. Dronedarone was selected as it is an FDA approved anti-arrhythmic drug.
(§2) The effect of increasing concentrations of T3 and T4 on the proliferation of 3 breast cancer cell lines (MCF 7, MD-MB-231, BT-474) in 10% charcoal-stripped phenol-free serum was evaluated at 24 and 48 hours following standard MTT-assay protocols. Increasing doses of PTU and dronedarone were added to cells with 200 μM T3 or T4 to measure proliferation of MCF-7 and MD-MB-231 cells using MTT assays.

MD-MB-231 cells = assay: MTT proliferation assay, MD-MB-231 breast cancer cells; conditions: for effect on proliferation of MD-MB-231 cells: increasing concentrations, 24 and 48 hours, 10% charcoal-stripped phenol-free serum, dose dependent
Method: as §1, §2

BT-474 cells = assay: MTT proliferation assay, BT-474 breast cancer cells; conditions: increasing concentrations, 24 and 48 hours, 10% charcoal-stripped phenol-free serum, dose dependent
Method: as §1, §2

Structure (SMILES): CCCCc1oc2ccc(NS(C)(=O)=O)cc2c1C(=O)c1ccc(OCCCN(CCCC)CCCC)cc1 [dronedarone]
- effect on proliferation (MCF7 cells; 10 μM dronedarone in combination with T3): significantly reduced proliferation
- effect on proliferation (MCF7 cells; 10 μM dronedarone in combination with T4): significantly reduced proliferation
- effect on proliferation (MD-MB-231 cells; MD-MB-231 cells, 10 μM dronedarone in combination with T3): significantly reduced proliferation
- effect on proliferation (MD-MB-231 cells; MD-MB-231 cells, 10 μM dronedarone in combination with T4): significantly reduced proliferation
- effect on cell proliferation (MD-MB-231 cells; dronedarone alone, without T3/T4 (FIG. 13: MDA-MB-231 cells, 24 hours)): not affected

- pIC50 (MCF7 cells; in the presence of T3 (FIG. 10), read-out: IC50 (proliferation)): 4.92
- pIC50 (MCF7 cells; in the presence of T4 (FIG. 10), read-out: concentration reducing proliferation by 50%): ~5.30
- pIC50 (MD-MB-231 cells; Homo sapiens, PTU alone, without T3/T4 (FIG. 11: MDA-MB-231 cells, 24 hours), read-out: concentration reducing cell proliferation by 50%): < 4.92
- pIC50 (MD-MB-231 cells; MD-MB-231 cells, in the presence of T3 (FIG. 10), read-out: IC50 (proliferation)): 4.92
- pIC50 (MD-MB-231 cells; MD-MB-231 cells, in the presence of T4 (FIG. 10), read-out: concentration reducing proliferation by 50%): ~5.30
Structure (SMILES): CCCc1cc(=O)[nH]c(=S)[nH]1 [PTU, propylthiouracil]

Structure (SMILES): N[C@@H](Cc1cc(I)c(Oc2ccc(O)c(I)c2)c(I)c1)C(=O)O [T3, tri-iodothyronine]
- effect on proliferation of BT-474 cells (BT-474 cells): statistically significant increase
- effect on proliferation of MCF7 cells (MCF7 cells): statistically significant increase
- effect on proliferation of MD-MB-231 cells (MD-MB-231 cells): statistically significant increase

Structure (SMILES): N[C@@H](Cc1cc(I)c(Oc2cc(I)c(O)c(I)c2)c(I)c1)C(=O)O [T4, thyroxine]
- effect on proliferation of BT-474 cells (BT-474 cells): statistically significant increase
- effect on proliferation of MCF7 cells (MCF7 cells): statistically significant increase
- effect on proliferation of MD-MB-231 cells (MD-MB-231 cells): statistically significant increase
